The values that follow are results of earlier work, collected in patent US20240082270A1 (priority 2021, published 2024).

Read-outs that look alike come from different tables or passages of the source.

One may read the Ki as a dissociation constant, usually derived from enzyme kinetics or from competition with a known ligand. A word on the bioavailability: it is dose-corrected exposure relative to a reference, in per cent. What is called IC50 is the concentration that gives 50% inhibition. A word on the Tmax: it is the time from dosing to the highest level.

The target of one data set is CB1R (Homo sapiens, UniProt P21554).
The test system of data set [1] is SARS-CoV-2. Particulars: lung epithelial cells.
The test system of another data set is human CBR. Particulars: rather non-selectively.
The conditions of data set [2]: stress and anxiety.
The conditions of data set [3]: pharmaceutical CBD, up to 1500 mg/day for 6 weeks.
For data set [4] the following is noted: Lennox-Gastaut and Dravet syndrome.
The next data set concerns the target 5-HT1A receptor (Homo sapiens, UniProt P08908).
The conditions of data set [5]: emulsified, small dispersed molecules.
For data set [6] the following is noted: after oral CBD in rats.
A further data set deals with mouse bladder. The conditions noted are these: induced by acetylcholine.
Data set [7] relates to SARS-CoV-2. The conditions noted are these: cohort of human patients previously taking CBD.
Data set [8] deals with pseudovirus expressing the SARS-CoV-2 spike protein.
In data set [9] the target is T1, SARS-CoV-2 spike protein (Severe acute respiratory syndrome coronavirus 2, UniProt P0DTC2). The conditions noted are these: allosteric as well as orthosteric ligands.
The conditions of data set [10]: animal studies.
For data set [11] the following is noted: dog.
The conditions of data set [12]: mouse, in vivo.
Data set [13] deals with store-operated calcium (Ca2+) entry (SOCE). The conditions noted are these: human T lymphocytes.
The target in data set [14] is SARS-CoV-2 main proteases (Severe acute respiratory syndrome coronavirus 2, UniProt P0DTD1).
The target of data set [15] is T1, SARS-CoV-2 spike protein.
The next data set relates to melanoma. The conditions noted are these: inhibition of E2F1 transcription.
A further data set relates to mast cells. The conditions noted are these: higher concentration.
The conditions of data set [16]: after 30 min ingestion.
The conditions of data set [17]: if stored properly.
Test in data set [18]: not given
This is another data set of the same source.

A further data set relates to protein kinase B. The conditions noted are these: oxidative muscles.
For data set [19], the target named is CB2R (Homo sapiens, UniProt P34972).
The conditions of data set [20]: rectal.
Data set [21] addresses acylglycerol lipase, MAG1 (Homo sapiens, UniProt Q99685). Particulars: reversible mechanism.
The next data set has as its system mice. Particulars: inhaled from ambient air.
The conditions of data set [22]: chronic or single dose, versus control group without piperine.
For data set [23], the target named is T2, CB2R (Mus musculus, UniProt P47936).
T2 construct: host or cells: wild-type mice, in vivo (oral dosing)
The conditions noted are these: oral, <5 mg-kg^−1.

Test in data set [24]: not given
This is another data set of the same source.

The conditions of data set [25]: skin models.

Sequence of CB2R (Homo sapiens, UniProt P34972) (P34972 whole entry): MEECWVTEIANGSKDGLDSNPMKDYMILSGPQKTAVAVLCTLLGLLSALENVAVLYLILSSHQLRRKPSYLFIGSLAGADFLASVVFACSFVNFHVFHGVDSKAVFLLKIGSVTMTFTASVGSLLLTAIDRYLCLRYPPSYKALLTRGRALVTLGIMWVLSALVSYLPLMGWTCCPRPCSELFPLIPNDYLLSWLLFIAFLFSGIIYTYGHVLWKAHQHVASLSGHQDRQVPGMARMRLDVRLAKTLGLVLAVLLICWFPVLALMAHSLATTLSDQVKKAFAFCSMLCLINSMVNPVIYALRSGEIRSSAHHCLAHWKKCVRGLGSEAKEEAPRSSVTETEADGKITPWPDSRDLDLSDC
Sequence of CB1R (P21554 whole entry): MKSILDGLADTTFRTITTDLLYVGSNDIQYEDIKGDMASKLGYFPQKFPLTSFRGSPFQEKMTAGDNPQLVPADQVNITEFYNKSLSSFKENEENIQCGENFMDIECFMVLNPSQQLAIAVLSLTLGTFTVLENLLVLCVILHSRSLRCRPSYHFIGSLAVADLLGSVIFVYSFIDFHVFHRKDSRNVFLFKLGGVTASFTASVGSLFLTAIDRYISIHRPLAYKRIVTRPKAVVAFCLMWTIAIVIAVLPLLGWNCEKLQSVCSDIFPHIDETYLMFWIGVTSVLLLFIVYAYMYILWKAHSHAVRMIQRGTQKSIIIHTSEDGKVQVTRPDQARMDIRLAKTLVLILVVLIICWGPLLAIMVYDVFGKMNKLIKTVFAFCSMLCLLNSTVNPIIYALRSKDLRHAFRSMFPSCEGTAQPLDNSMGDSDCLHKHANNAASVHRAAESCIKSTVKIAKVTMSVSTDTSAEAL
Sequence of acylglycerol lipase, MAG1 (Q99685 whole entry): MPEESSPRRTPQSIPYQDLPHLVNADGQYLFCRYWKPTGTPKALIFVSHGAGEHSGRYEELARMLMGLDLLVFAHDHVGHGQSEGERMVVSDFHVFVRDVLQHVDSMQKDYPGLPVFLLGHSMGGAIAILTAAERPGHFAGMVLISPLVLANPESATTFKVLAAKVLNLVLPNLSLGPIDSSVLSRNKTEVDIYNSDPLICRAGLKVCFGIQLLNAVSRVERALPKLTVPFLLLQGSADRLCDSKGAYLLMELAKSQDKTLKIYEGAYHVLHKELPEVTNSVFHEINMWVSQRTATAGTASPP
Sequence of 5-HT1A receptor (P08908 whole entry): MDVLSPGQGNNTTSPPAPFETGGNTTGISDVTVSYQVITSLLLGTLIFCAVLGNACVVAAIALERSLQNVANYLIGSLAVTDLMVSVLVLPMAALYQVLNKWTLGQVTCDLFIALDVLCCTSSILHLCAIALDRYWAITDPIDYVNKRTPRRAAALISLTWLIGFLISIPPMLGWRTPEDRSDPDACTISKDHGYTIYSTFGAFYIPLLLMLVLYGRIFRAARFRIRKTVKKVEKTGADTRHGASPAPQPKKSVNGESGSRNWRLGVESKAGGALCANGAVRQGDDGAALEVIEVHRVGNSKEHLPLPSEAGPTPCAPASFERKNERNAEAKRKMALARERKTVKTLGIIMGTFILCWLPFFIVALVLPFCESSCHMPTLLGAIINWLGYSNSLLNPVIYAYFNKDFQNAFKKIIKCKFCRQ
T2 sequence (P47936 whole entry): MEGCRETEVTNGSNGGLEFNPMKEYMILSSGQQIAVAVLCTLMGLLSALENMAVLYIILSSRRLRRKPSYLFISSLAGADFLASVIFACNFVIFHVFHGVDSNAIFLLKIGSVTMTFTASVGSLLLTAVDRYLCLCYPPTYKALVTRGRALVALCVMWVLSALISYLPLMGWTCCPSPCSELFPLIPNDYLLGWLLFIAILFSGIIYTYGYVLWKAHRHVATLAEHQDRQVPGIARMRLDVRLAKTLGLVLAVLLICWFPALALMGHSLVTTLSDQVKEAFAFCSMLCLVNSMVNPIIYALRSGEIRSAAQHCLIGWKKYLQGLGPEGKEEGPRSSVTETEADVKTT

Regarding `CCCCC/C=C\C/C=C\C/C=C\C/C=C\CCCCOC(CO)CO` [2-AGE, 2-arachidonyl glyceryl ether], the Ki on CB1R (read-out: Ki) is 21.2 nM.

With `C=C(C)[C@@H]1CCC(CO)=C[C@H]1c1c(O)cc(CCCCC)cc1O` [7-OH-CBD], the SARS-CoV-2 replication entry with SARS-CoV-2 [1] is “block SARS-CoV-2 replication”.

For `Oc1cc(O)c2c(c1)O[C@H](c1cc(O)c(O)c(O)c1)[C@H](O)C2` [(−)-epigallocatechin], the “concentrations at which binding to human CBR was shown” value in the data set with human CBR is reported as “high μM concentrations”.

With `CCCCCc1cc(O)c2c(c1)OC(C)(CCC=C(C)C)C=C2` (centres unmarked) [CBC, cannabichromene], in data set [2], the “potency relative to CBD” value is recorded as “up to 10 times”.

Take `C=C(C)[C@@H]1CCC(C)=C[C@H]1c1c(O)cc(CCCCC)cc1O` [CBD, Cannabidiol]: the physical withdrawal symptoms result in data set [3] is given as “No physical withdrawal symptoms were observed”. In addition, the “degradation, average values” (effect of light, after 30 days) is recorded as “up to 15%”. Further, under “stored at 37° C. for 30 days”, the “degradation, average values” is on record as “up to 20%”. Besides, the “reduction in seizures rate” value in data set [4] is reported as 50%. Besides, at 5-HT1A receptor, the “concentration that synergistically enhances other 5-HT1A receptor agonists” value is recorded as 100 nM and the “concentrations at which the 5-HT1A receptor is activated” value is given as “above 10 μM”. Further, in the data set with SARS-CoV-2 [1], the SARS-CoV-2 replication result was “block SARS-CoV-2 replication”. In addition, the sublingually absorbed entry in data set [5] is given as “up to 35%”. Moreover, in [6], the “time of peak brain concentration” value was 6 h and the “time of peak serum level” value is 1 h. For the same compound, in the data set with mouse bladder, the “ranked potency of detrusor contraction inhibition” value is reported as “CBG=THCV>CBD>CBDV, but not CBC”. In the data set on SARS-CoV-2 [7], the SARS-CoV-2 infection incidence entry is given as “significantly lower”.

`C=C(C)[C@@H]1CCC(C)=C[C@H]1c1c(O)cc(CCCCC)c(C(=O)O)c1O` [CBDA]: the “entry of live SARS-CoV-2 into cells” value in the data set with live SARS-CoV-2 is “prevented entry”. Further, in [8], the “infection of human epithelial cells by pseudovirus” value is recorded as “prevented infection”. Moreover, the “affinity for the spike protein” value on SARS-CoV-2 spike protein [9] is “micromolar affinity”.

In the case of `C=C(C)[C@@H]1CCC(C)=C[C@H]1c1c(O)cc(CCC)cc1O` [CBDV, Cannabidivarin], the “time of peak brain concentrations” value in [10] was 30 min. Also, the “ranked potency of detrusor contraction inhibition” value in the data set on mouse bladder is reported as “CBG=THCV>CBD>CBDV, but not CBC”.

In the case of `C=C(C)[C@@H]1CCC(C)=C[C@H]1c1c(O)cc(CCC)c(C(=O)O)c1O` [CBDVA], the “time of peak brain concentrations” value in data set [10] is 15 min.

Regarding `CCCCCc1cc(O)c(C/C=C(\C)CCC=C(C)C)c(O)c1C(=O)O` [CBGA, cannabigerolic acid], in the data set on live SARS-CoV-2, the “entry of live SARS-CoV-2 into cells” value is “prevented entry”. Further, the “adverse effects monitored by blood testing” value in [11] (2 weeks of high twice daily dosing) is recorded as “no adverse effects”. The oral absorption entry in data set [11] (with or without food) is given as “orally absorbed significantly better than CBG”. Further, in [10], the “time of peak brain concentrations” value is 45 min. Also, in [12], the “effect on hyperthermia-induced seizures” value is “more effective for seizures triggered by a febrile event than CBD”. For the same compound, the “potency against SOCE (blocking CRAC currents)” value in data set [13] is recorded as “dose-dependent high potency”. In addition, in [8], the “infection of human epithelial cells by pseudovirus” value was “prevented infection”. Moreover, the “affinity for the spike protein” value on SARS-CoV-2 spike protein [9] is on record as “micromolar affinity”.

For `CCCc1cc(O)c(C/C=C(\C)CCC=C(C)C)c(O)c1` [CBGV, cannabigerovarin], in [10], the “time of peak brain concentrations” value is 30 min. Further, the “effect on hyperthermia-induced seizures” value in data set [12] is given as “Neither CBG nor CBGV affected thresholds”.

For `CCCc1cc(O)c(C/C=C(\C)CCC=C(C)C)c(O)c1C(=O)O` [CBGVA, cannabigerovarinic acid], in data set [10], the “time of peak brain concentrations” value was 15 min.

`Nc1ncnc2c1ncn2[C@@H]1O[C@H](CO)C[C@H]1O` [Cordycepin, 3′-deoxyadenosine]: the binding affinity in data set [14] is listed as −180.5; at SARS-CoV-2 spike protein [15], −145.3.

For `C=CCc1ccc(O)c(OC)c1` [Eugenol], in the data set on HL-60 leukemia cells, the concentration inducing apoptosis is 40 µmol/L. The “concentration inhibiting melanoma growth” value in the data set with melanoma was 0.5 to 2.5 µmol⁻¹. The “concentration leading to translocation of phospho-Ser15-p53 into mitochondria” value in the data set on mast cells is 700 µmol/L.

As to `CC(C)=CCC/C(C)=C/CO` [Geraniol], the bioavailability in data set [16] was 92%.

For `C[C@H]1CC[C@@H](C(C)(C)O)CC2=C1CC[C@@H]2C` [Guaiol], in data set [17], the “Shelf Life” value is recorded as ≥ 12 month(s).

Turning to `CCCCCc1cc(OC)c(C/C=C(\C)CCC=C(C)C)c(OC(=O)CCN2CCOCC2)c1` [HUM-234, Monomethoxycannabigeroyl-β-morpholinoproprionate], in data set [18] (mice fed a high-fat diet (HFD)), the obesity result was “prevents obesity”. Moreover, the TNF-α levels result in [18] (mouse, in vivo) is “increases TNF-α at higher doses”.

Take `C[C@@H](O)CC(=O)O` [R-BHB]: in the data set on protein kinase B, the “inhibition of insulin-mediated phosphorylation of protein kinase B” value was 50%.

Consider `CCCCCc1cc(O)c(C/C=C(\C)CC/C=C(\C)CCC=C(C)C)c(O)c1` [Sesquicannabigerol], for which the “affinity at CB2R higher than CBG” value on CB2R [19] (relative to CBG) is 5 fold.

Turning to `CCCCCc1cc(OC(=O)CCC(=O)O)c2c(c1)OC(C)(C)[C@@H]1CCC(C)=C[C@@H]21` [THC-HS, THC-hemisuccinate], the bioavailability in data set [20] is given as 70-80%.

Consider `CCCc1cc(O)c2c(c1)OC(C)(C)[C@@H]1CCC(C)=C[C@@H]21` [THCV, tetrahydrocannabivarin], for which the “time of peak brain concentrations” value in [10] was 30 min. Moreover, the “effect on hyperthermia-induced seizures” value in data set [12] is given as “resulted in seizures at lower temperature thresholds”. In addition, the “ranked potency of detrusor contraction inhibition” value in the data set with mouse bladder is recorded as “CBG=THCV>CBD>CBDV, but not CBC”.

In the case of `O=C(O[C@@H]1Cc2c(O)cc(O)cc2O[C@@H]1c1cc(O)c(O)c(O)c1)c1cc(O)c(O)c(O)c1` [epigallocatechin β-gallate], the “concentrations at which binding to human CBR was shown” value with human CBR is recorded as “high μM concentrations”.

`CC(C)=CCC[C@@H](C)[C@@H]1CC[C@]2(C)C3=C(CC[C@@]12C)[C@@]1(C)CC[C@H](O)C(C)(C)[C@@H]1CC3` [euphol]: the half-inhibitory concentration (IC50) in data set [21] (read-out: IC50) was 315 nM.

For `C=C[C@H](O)C#CC#CC/C=C\CCCCCCC` [falcarinol], the inhibitory constant (Ki) on CB1R (read-out: Ki value, CB1R) was below 1000 nM.

With `C=C(C)[C@H]1CC=C(C)CC1` [limonene], the increase in motility in the data set on mice is 35.25%.

Take `C=CC(C)(O)CCC=C(C)C` (centres unmarked) [linalool]: in the data set with mice, the reduction in motility is on record as 73%.

As to `O=C(/C=C/C=C/c1ccc2c(c1)OCO2)N1CCCCC1` [piperine, Piperine], in [22], the “increase in oral bioavailability of CBD” value is recorded as around 2.5 fold.

Turning to `COC(=O)[C@]1(C)CC[C@]2(C)CC[C@]3(C)C4=CC=C5C(=CC(=O)C(O)=C5C)[C@]4(C)CC[C@@]3(C)[C@@H]2C1` [pristimerin], the IC50 in data set [21] is 93 nM.

In the case of `C=C1CC/C=C(\C)CC[C@@H]2[C@@H]1CC2(C)C` [β-caryophyllene], at CB2R [23], the “anti-inflammatory and analgesic effects” value was “strong anti-inflammatory and analgesic effects in wild-type mice but not in CB2 receptor knockout mice”. Moreover, the Ki on CB2R [19] (CB2R, full agonist) was 155 nM. In data set [24] (one single oral administration), the Tmax is on record as above 1 h. Further, the maximal onset in data set [24] (orally administered) is 1 h.

Consider `CC[C@H](CC[C@@H](C)[C@H]1CC[C@H]2[C@@H]3CC=C4C[C@@H](O)CC[C@]4(C)[C@H]3CC[C@]12C)C(C)C` [β-sitosterol], for which, in data set [25], the “reduction of chronic edema” value is given as 41% and the “reduction of topical inflammation” value is on record as 65%.

For pinene, the increase in motility with mice is 13.77%.
